Earlier results on 36 compounds are cited in patent US5739081A, “Water dispersible granules of liquid pesticides” (ICI Australia Operations Proprietary Ltd., priority 1992, dated 1998).

In brackets after ≈: the same amount, converted by molar mass.

For one series the following is noted: in water.
For `CCOP(=S)(OCC)Oc1ccc([N+](=O)[O-])cc1` [Parathion], the Solubility in water is 24 µg/mL (≈ 82.4 µM).

Take `C#CCOS(=O)OC1CCCCC1Oc1ccc(C(C)(C)C)cc1` (stereo not drawn) [Propargite]: the Solubility in water is 1.9 µg/mL (≈ 5.42 µM). For `CCCCOCN(C(=O)CCl)c1c(CC)cccc1CC` [Butachlor], the Solubility in water was 23 µg/mL (≈ 73.8 µM). Turning to `CON=C(Cc1cccnc1)c1ccc(Cl)cc1Cl` [Pyrifenox], the Solubility in water is 115 µg/mL (≈ 390 µM). `CCOP(=O)(N=C1SCC(C)S1)OCC` (stereo not drawn) [Mephosfolan]: the Solubility in water is 57 µg/mL (≈ 212 µM).

In the case of `CCSC(=O)N(CC(C)C)CC(C)C` [Butylate], the Solubility in water is 46 µg/mL (≈ 212 µM). As for `CC1(C)[C@H](C(=O)O[C@H](C#N)c2cccc(Oc3ccccc3)c2)[C@@H]1/C=C(\Cl)C(F)(F)F` [Lambda-cyhalothrin], the Solubility in water was 0.005 µg/mL (≈ 0.0111 µM).

In the case of `CC1(C)C(/C=C(\Cl)C(F)(F)F)C1C(=O)OC(C#N)c1cccc(Oc2ccccc2)c1` (stereo not drawn) [Cyhalothrin], the Solubility in water was 0.003 µg/mL (≈ 0.00667 µM). For the compound `CCN(CC)c1nc(C)cc(OP(=S)(OC)OC)n1` [Pirimiphos-methyl], the Solubility in water is 5 µg/mL (≈ 16.4 µM). Turning to `CCN(CC)C(=O)SCc1ccc(Cl)cc1` [Thiobencarb], the Solubility in water is 30 µg/mL (≈ 116 µM). Turning to `CCCSP(=O)(OCC)Oc1cnn(-c2ccc(Cl)cc2)c1` (stereo not drawn) [Pyraclofos], the Solubility in water is 33 µg/mL (≈ 91.5 µM). Take `CCSCCSP(=O)(OC)OC` [Demeton-S-methyl]: the Solubility in water was 3300 µg/mL (≈ 14300 µM). On to `CCSCCSP(=S)(OC)OC` [Thiometon], for which the Solubility in water is 200 µg/mL (≈ 812 µM). In the case of `CCCCCCCCCCCCCN1CC(C)OC(C)C1` (stereo not drawn) [Tridemorph], the Solubility in water was 11.7 µg/mL (≈ 39.3 µM). With `CCc1cccc(C)c1N(C(=O)CCl)C(C)COC` (stereo not drawn) [Metolachlor], the Solubility in water is 530 µg/mL (≈ 1870 µM). Regarding `CCOP(=O)(OCC)OC(=CCl)c1ccc(Cl)cc1Cl` [Chlorfenvinphos], the Solubility in water is 145 µg/mL (≈ 403 µM). Turning to `CCOC(=O)/C=C(C)/C=C/CC(C)CCCC(C)C` (stereo not drawn) [Hydroprene], the Solubility in water was 0.54 µg/mL (≈ 2.03 µM). For the compound `C#CCON=C1CC2CCC1(C)C2(C)C` (racemic) [Heptopargil], the Solubility in water was 1000 µg/mL (≈ 4870 µM).

Regarding `COP(=S)(OC)Oc1ccc([N+](=O)[O-])c(C)c1` [Fenitrophion], the Solubility in water was 14 µg/mL (≈ 50.5 µM).

For the compound `COP(=O)(OC)OC1=C(Cl)C2C=CCC12` (stereo not drawn) [Heptenophos], the Solubility in water is 2200 µg/mL (≈ 8780 µM). With `CNC(=O)CSP(=O)(OC)OC` [Omethoate], the Solubility in water was 500 µg/mL (≈ 2350 µM). Regarding `CCOP(=S)(OCC)SCCSCC` [Disulfoton], the Solubility in water is 25 µg/mL (≈ 91.1 µM). With `CCOP(=S)(NC(C)C)Oc1ccccc1C(=O)OC(C)C` (stereo not drawn) [Isofenphos], the Solubility in water was 23.8 µg/mL (≈ 68.9 µM). `CC(Cc1ccc(C(C)(C)C)cc1)CN1C[C@@H](C)O[C@@H](C)C1` (stereo partly drawn) [Fenpropimorph]: the Solubility in water was 10 µg/mL (≈ 33 µM). On to `CCCCOC(=O)[C@@H](C)Oc1ccc(Oc2ccc(C(F)(F)F)cn2)cc1` [Fluazifop-P-butyl], for which the Solubility in water is 1 µg/mL (≈ 2.61 µM). With `CCNP(=S)(OC)O/C(C)=C/C(=O)OC(C)C` (stereo not drawn) [Propetamphos], the Solubility in water is 110 µg/mL (≈ 391 µM). On to `CCOP(=S)(NC(C)CC)Oc1cc(C)ccc1[N+](=O)[O-]` (stereo not drawn) [Butamifos], for which the Solubility in water is 5.1 µg/mL (≈ 15.3 µM). For `CCCCN(CC)C(=O)SCCC` [Pebulate], the Solubility in water was 60 µg/mL (≈ 295 µM).

As for `CCCN(CCC)C(=O)SCc1ccccc1` [Prosulfocarb], the Solubility in water was 13.2 µg/mL (≈ 52.5 µM). As to `CCCC1COC(Cn2cncn2)(c2ccc(Cl)cc2Cl)O1` (stereo not drawn) [Propiconazole], the Solubility in water is 110 µg/mL (≈ 321 µM).

The same series, now with this note: in water; in words.
On to Dinocap, for which the Solubility in water entry is given as “Sp. soluble”. As to `CC(C)N(Cc1ccccc1)C(=O)C(C)(C)C` [Tebutam], the Solubility in water result was “Almost Insoluble”.

Staying with this series, now noted: water.
Turning to `CCOP(=S)(OCC)SCCl` [Chlorimephos], the Solubility in water is 60 µg/mL (≈ 256 µM).

Regarding `CCOP(=S)(OCC)Oc1cc(C)nc(C(C)C)n1` [Diazinon], the Solubility in water was 40 µg/mL (≈ 131 µM). Turning to `CCCSP(=O)(OCC)Oc1ccc(Br)cc1Cl` (stereo not drawn) [Profenofos], the Solubility in water is 20 µg/mL (≈ 53.5 µM). For the compound `CC1(C)C(C=C(Cl)Cl)C1C(=O)OCc1cccc(Oc2ccccc2)c1` (stereo not drawn) [Permethrin], the Solubility in water was 0.2 µg/mL (≈ 0.511 µM).
